Measured values taken from US20220315572A1, “SUBSTITUTED CYANOPYRROLIDINES WITH ACTIVITY AS USP30 INHIBITORS” (MISSION THERAPEUTICS LIMITED, priority 2019, published 2022).

Assays:
[1] = target: T1, USP30 (Homo sapiens, UniProt Q70CQ3); test: USP30 biochemical IC50 assay (fluorescence polarisation); details: USP30 biochemical IC50 assay, exemplary compounds; read-out: IC50
T1 construct: purchased Boston Biochem E582
T1 sequence (Q70CQ3 57-517 limits assumed): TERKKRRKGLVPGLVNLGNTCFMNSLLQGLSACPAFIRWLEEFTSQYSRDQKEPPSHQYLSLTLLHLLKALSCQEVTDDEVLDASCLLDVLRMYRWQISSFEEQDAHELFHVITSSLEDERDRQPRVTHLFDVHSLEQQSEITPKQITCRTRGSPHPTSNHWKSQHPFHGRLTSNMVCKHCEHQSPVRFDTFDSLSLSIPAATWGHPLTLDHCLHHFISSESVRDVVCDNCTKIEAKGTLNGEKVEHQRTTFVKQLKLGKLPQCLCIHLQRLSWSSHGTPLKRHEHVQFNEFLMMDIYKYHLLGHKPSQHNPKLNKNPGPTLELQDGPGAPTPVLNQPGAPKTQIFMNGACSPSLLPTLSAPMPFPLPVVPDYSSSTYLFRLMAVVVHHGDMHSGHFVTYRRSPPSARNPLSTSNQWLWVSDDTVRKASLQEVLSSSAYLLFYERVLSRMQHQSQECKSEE
Method: Dilution plates were prepared at 21 times the final concentration (2100 μM for a final concentration of 100 μM) in 50% DMSO in a 96-well polypropylene V-bottom plate (Greiner #651201). A typical 8-point dilution series would be 100, 30, 10, 3, 1, 0.3, 0.1, 0.03 μM final. Reactions were performed in duplicate in black 384 well plates (small volume, Greiner 784076) in a final reaction volume of 21 μl. Either […] of 50% DMSO or diluted compound was added to the plate. USP30 (Boston Biochem #E582) was diluted in reaction buffer (40 mM Tris, pH 7.5, 0.005% Tween 20, 0.5 mg/ml BSA, 5 mM beta-mercaptoethanol) to achieve a final assay concentration of 4 nM, and 10 μl of diluted USP30 was added to the compound. Enzyme and compound were incubated for 30 min at room temp. Reactions were initiated by the addition of 50 nM of TAMRA labelled peptide linked to ubiquitin via an iso-peptide bond as fluorescence polarisation substrate. Reactions were read immediately after addition of substrate and following a 2-hour incubation at room temperature. Readings were performed on a Pherastar Plus (BMG Labtech). λ Excitation 540 nm; λ Emission 590 nm.

[2] = target: T2, UCHL1 (Homo sapiens, UniProt P09936); test: DUB biochemical IC50 assay, UCHL1
T2 sequence (P09936 1-223): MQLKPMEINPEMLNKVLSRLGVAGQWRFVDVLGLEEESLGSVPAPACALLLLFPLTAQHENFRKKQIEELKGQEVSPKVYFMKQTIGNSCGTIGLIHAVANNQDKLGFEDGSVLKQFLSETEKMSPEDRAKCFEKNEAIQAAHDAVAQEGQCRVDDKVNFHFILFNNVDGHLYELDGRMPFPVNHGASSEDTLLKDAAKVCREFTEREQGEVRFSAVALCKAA

[3] = system: USP2, USP10, USP16, USP21, USP22, USP25, USP28, USP35, USP46; test: DUB biochemical IC50 assays, nine DUBs; details: range over the nine DUBs
[4] = target: Cathepsin B (Homo sapiens, UniProt P07858); test: Cathepsin IC50, cathepsin B; assay type: biochemical
[5] = target: T3, Cathepsin K (Homo sapiens, UniProt P43235); test: Cathepsin IC50, cathepsin K; assay type: biochemical
T3 sequence (P43235 115-329): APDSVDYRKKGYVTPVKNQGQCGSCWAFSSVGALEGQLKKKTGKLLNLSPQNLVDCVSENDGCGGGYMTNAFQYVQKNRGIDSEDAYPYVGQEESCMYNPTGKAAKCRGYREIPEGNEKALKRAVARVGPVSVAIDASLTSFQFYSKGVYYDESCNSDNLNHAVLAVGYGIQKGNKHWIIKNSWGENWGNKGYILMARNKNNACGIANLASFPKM

[6] = target: Cathepsin L (Homo sapiens, UniProt P07711); test: Cathepsin IC50, cathepsin L; assay type: biochemical
Sequence of Cathepsin L (P07711 114-333, species assumed): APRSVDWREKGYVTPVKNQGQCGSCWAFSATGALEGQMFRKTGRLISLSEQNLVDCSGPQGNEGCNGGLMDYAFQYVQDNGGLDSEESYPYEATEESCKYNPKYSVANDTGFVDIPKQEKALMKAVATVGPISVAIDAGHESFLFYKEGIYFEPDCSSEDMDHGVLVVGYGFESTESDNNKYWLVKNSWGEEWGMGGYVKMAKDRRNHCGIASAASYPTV

[7] = target: Cathepsin S (Homo sapiens, UniProt P25774); test: Cathepsin IC50, cathepsin S; assay type: biochemical
Sequence of Cathepsin S (P25774 115-331, species assumed): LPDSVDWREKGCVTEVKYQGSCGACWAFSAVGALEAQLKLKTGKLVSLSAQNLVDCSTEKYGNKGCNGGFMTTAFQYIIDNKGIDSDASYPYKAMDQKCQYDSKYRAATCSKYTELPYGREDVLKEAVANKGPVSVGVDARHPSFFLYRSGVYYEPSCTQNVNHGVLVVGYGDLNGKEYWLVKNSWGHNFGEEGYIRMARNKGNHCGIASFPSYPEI

[8] = target: Cathepsin V (Homo sapiens, UniProt O60911); test: Cathepsin IC50, cathepsin V; assay type: biochemical
Sequence of Cathepsin V (O60911 114-334, species assumed): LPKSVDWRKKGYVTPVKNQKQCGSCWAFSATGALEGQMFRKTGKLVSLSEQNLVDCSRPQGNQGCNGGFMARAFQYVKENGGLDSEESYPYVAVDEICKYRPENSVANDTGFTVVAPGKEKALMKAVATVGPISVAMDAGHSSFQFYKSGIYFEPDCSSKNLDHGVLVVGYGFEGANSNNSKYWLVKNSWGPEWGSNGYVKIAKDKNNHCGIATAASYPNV

[9] = system: Cathepsins B, K, L, S, V; test: Cathepsin IC50, range over B, K, L, S, V; assay type: biochemical
[10] = system: HCT116 human colorectal carcinoma cells; test: In vitro cytotoxicity (Cell Tox), alamarBlue; assay type: cell-based
From the text: There is also a need for compounds that have a favourable safety profile, which may be measured by a variety of standard in vitro and in vivo methods. A cell toxicity counter-screen may be used to assay the anti-proliferative/cytotoxic effect in a particular cell line (e.g. HCT116) by fluorometric detection of rezasurin (alamarBlue) to resofurin in response to mitochondrial activity.
In Vitro Cytotoxicity (Cell Tox): Measured in HCT116 human colorectal carcinoma cells using alamarBlue as the assay endpoint. Compound cytotoxicity was measured over a period of 96-hour continual compound exposure.

[11] = target: T4, Endogenous USP30 (Homo sapiens, UniProt Q70CQ3); test: USP30 endogenous cellular target engagement western blot assay (Cell TE WB); assay type: cell-based; details: Hela cells stably overexpressing YFP-Parkin, 1 hour
T4 construct: USP30 endogenous cellular target engagement western blot (WB) assay; endogenous in cells; host or cells: HeLa stably overexpressing YFP-Parkin
T4 sequence (Q70CQ3 1-517): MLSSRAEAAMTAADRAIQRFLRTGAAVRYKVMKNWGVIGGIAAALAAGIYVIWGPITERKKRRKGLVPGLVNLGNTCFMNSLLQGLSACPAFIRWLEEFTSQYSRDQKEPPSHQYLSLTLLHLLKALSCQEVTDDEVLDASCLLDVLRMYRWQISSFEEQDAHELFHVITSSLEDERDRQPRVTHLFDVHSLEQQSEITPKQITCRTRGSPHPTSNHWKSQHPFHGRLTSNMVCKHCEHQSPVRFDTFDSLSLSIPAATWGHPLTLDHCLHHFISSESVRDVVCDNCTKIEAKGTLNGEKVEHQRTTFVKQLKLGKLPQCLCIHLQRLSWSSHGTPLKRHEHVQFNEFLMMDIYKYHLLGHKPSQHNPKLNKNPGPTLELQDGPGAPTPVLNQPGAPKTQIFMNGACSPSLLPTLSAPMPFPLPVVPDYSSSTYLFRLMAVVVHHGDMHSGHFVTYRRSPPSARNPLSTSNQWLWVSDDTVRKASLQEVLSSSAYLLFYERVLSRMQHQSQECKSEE
Method: Hela cells stably overexpressing YFP-Parkin were seeded into 6 well dishes. Once adhered, cells were treated with appropriate concentrations of test compounds or vehicle control for 1 hour at 37° C., 5% CO2. Whole cell lysates were prepared by scraping the cells into cold PBS, centrifuging and lysing in lysis buffer (50 mM Tris-base, pH 7.5, 50 mM NaCl, 1% NP-40/Igepal CA-630, 2 mM MgCl2, 10% Glycerol, 5 mM beta-mercaptoethanol, cOmplete mini tablets EDTA free (Roche), PhosStop tablets (Roche)) for 10 mins. The equivalent of 20 μg of protein from the cleared cell lysate was incubated with a final conc of 2.5 μM HA-Ahx-Ahx-Ub-VME probe at room temperature. The reaction was stopped by addition of 5×SDS sample loading buffer and proteins separated by SDS PAGE and western blotting. USP30 was detected using an anti-USP30 Sheep S746D antibody (MRC PPU Reagents and Services) and a rabbit anti sheep secondary IgG (H+L) horseradish peroxidase conjugated (Thermo #31480) and visualised using ECL reagent (GE #RPN2109) on a GE LAS4000 imager. Target engagement was measured by quantitation of the bands corresponding to USP30 and USP30 bound to the Ub-VME probe and expression of this proportion compared to vehicle treated control.
Cell TE WB: USP30 endogenous cellular target engagement western blot (WB) assay. Assays the activity of compounds against USP30 in cells using an irreversible activity probe to monitor USP30 activity.

IC50 [1]: 0.029 µM | DUB selectivity preference for USP30 v UCHL1 [2]: 10300 | IC50 [2]: > 300 µM | IC50 ([3]; Ref. Ex. C excl. USP22, Ref. Ex. D excl. USP2, 46): ≥ 10.6 µM | IC50 [4]: 111 µM | IC50 [5]: 44.5 µM | IC50 [6]: 54.5 µM | IC50 [7]: 226 µM | IC50 [8]: 223 µM | IC50 ([9]; range over the five cathepsins): 44.5 to 226 µM | EC50 [11]: 0.087 µM
Structure (SMILES): COC[C@@H]1C[C@@H](NC(=O)c2nnc(-c3cc(C#N)ccc3OC)o2)CN1C#N [Example 4, 5-(5-Cyano-2-methoxyphenyl)-N-((3R,5S)-1-cyano-5-(methoxymethyl)pyrrolidine-3-yl)-1,3,4-oxadiazole-2-carboxamide]
DUB selectivity preference for USP30 v 9 DUBs [3]: 365-10300 | Selectivity preference for USP30 v cathepsins ([9]; range over cathepsins B, K, L, S, V): 1500-7800 | Cell Tox EC50/USP30 IC50 [10]: >1000 | EC50 ([10]; Homo sapiens, HCT-116, 96-hour continual compound exposure, alamarBlue): > 30 µM
